Our source for the EC50 and Emax values is US8853392B2, “Benzamide mGluR5 positive allosteric modulators and methods of making and using same” (Vanderbilt University, priority 2007, dated 2014).

This experiment addresses T1, rat mGluR5 (Rattus norvegicus, UniProt P31424).
T1 construct: expressed in transfected cells; host or cells: human embryonic kidney (HEK) cells
The experiment in a line: potentiation of mGluR5 response to glutamate, Ca2+ fluorescence (FDSS) in HEK cells transfected with rat mGluR5. Format: cell-based. Conditions: for EC50: read-out: EC50. As to the method: Human embryonic kidney (HEK) cells transfected with rat mGluR5 were plated in clear bottom assay plates for assay in a Functional Drug Screening System (FDSS). The cells were loaded with a Ca^2+-sensitive fluorescent dye (e.g., Fluo-4), and the plates were washed and placed in the FDSS instrument. After establishment of a fluorescence baseline for twelve seconds, the compounds of the present invention were added to the cells, and the response in cells was measured. Five minutes later, an mGluR5 agonist (e.g., glutamate, 3,5-dihydroxyphenylglycine, or quisqualate) was added to the cells, and the response of the cells was measured. Potentiation of the agonist response of mGluR5 by the compounds in the present invention was observed as an increase in response to non-maximal concentrations of agonist (here, glutamate) in the presence of compound compared to the response to agonist in the absence of compound.
The above described assay operated in two modes. In the first mode, a range of concentrations of the present compounds were added to cells, followed by a single fixed concentration of agonist. If a compound acted as a potentiator, an EC50 value for potentiation and a maximum extent of potentiation by the compound at this concentration of agonist was determined by non-linear curve fitting. In the second mode, several fixed concentrations of the present compounds were added to various wells on a plate, followed by a range of concentrations of agonist for each concentration of present compound; the EC50 values for the agonist at each concentration of compound were determined by non-linear curve fitting. A decrease in the EC50 value of the agonist with increasing concentrations of the present compounds (a leftward shift of the agonist concentration-response curve) is an indication of the degree of mGluR5 potentiation at a given concentration of the present compound. An increase in the EC50 value of the agonist with increasing concentrations of the present compounds (a rightward shift of the agonist concentration-response curve) is an indication of the degree of mGluR5 antagonism at a given concentration of the present compound. The second mode also indicates whether the present compounds also affect the maximum response to mGluR5 to agonists.
Human embryonic kidney (HEK) cells transfected with rat mGluR5 were plated in clear-bottomed, poly-D-lysine-coated assay plates in glutamate-glutamine-free medium growth and incubated overnight at 37° C. in 5% CO2. The following day, cells were loaded with 2 μM calcium indicator dye, fluo-4 AM, for 1 h at 37° C. Dye was removed and replaced with assay buffer containing 1× Hanks balanced salt solution (Invitrogen, Carlsbad, Calif.), 20 mM HEPES, and 2.5 mM probenecid, pH 7.4. Cell plates were then loaded into the Functional Drug Screening System 6000 (FDSS 6000, Hamamatsu, Japan). After establishment of a fluorescence baseline for twelve seconds, the compounds of the present invention were added to the cells, and the response in cells was measured. Five minutes later, an mGluR5 agonist (e.g., glutamate, 3,5-dihydroxyphenylglycine, or quisqualate) was added to the cells, and the response of the cells was measured during a 1 minute incubation with agonists. Typically, the effect of test compounds of the present invention was on an EC20 concentration of glutamate was measured. All test compounds were dissolved and diluted in 100% DMSO and then serially diluted into assay buffer for a 2.5× stock in 0.25% DMSO; stock compounds were then added to the assay for a final DMSO concentration of 0.1%. Calcium fluorescence measures were recorded as fold over basal fluorescence; raw data was then normalized to the maximal response to agonist. Potentiation of the agonist response of mGluR5 by the compounds in the present invention was observed as an increase in response to non-maximal concentrations of agonist (here, glutamate) in the presence of compound compared to the response to agonist in the absence of compound. […]

[1] abbreviates: Table 1, EC50 for potentiating the mGluR5 receptor, unit inferred.
Where [2] appears, read: HEK293, maximum extent of potentiation, normalized to maximal response to glutamate, SAR tables, read-out: % Glu Max.
[3] abbreviates: potentiation of glutamate response, HEK cells transfected with rat mGluR5, SAR tables.

Where two headings read alike, the source gives them in different places.

T1 sequence (P31424 21-1203): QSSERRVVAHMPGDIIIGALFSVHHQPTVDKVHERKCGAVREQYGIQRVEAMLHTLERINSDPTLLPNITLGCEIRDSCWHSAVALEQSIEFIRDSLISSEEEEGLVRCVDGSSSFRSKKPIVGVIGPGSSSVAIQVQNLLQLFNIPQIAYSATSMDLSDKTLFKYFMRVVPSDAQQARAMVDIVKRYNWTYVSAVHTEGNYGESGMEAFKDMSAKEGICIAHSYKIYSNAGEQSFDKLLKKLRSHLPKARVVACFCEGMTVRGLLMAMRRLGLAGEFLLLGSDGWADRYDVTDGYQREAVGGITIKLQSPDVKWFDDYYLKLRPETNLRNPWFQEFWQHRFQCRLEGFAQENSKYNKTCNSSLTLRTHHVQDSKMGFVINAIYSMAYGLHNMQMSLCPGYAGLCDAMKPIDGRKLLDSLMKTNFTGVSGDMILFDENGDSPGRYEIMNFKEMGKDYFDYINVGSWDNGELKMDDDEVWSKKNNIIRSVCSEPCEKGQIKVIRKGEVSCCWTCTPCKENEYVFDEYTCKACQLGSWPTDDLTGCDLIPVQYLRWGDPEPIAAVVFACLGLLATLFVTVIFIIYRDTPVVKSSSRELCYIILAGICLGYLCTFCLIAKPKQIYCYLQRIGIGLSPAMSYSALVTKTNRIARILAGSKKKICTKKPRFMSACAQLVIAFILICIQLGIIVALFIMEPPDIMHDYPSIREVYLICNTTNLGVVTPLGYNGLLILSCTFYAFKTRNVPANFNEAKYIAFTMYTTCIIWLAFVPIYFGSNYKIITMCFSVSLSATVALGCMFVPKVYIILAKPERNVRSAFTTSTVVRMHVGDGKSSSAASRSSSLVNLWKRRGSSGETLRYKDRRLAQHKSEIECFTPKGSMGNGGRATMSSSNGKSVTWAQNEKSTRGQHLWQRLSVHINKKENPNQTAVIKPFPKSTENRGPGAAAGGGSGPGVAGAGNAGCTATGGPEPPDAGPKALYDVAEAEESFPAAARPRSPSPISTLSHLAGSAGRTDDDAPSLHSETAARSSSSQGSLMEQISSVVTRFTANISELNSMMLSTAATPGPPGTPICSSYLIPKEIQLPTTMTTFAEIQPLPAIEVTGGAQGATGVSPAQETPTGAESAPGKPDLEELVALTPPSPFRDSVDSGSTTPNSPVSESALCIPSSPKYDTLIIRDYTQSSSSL

As usually defined, the EC50 is the concentration that produces a half-maximal response. As to `C[C@@H](CNC(=O)c1ccc(C#Cc2ccccc2)cc1)c1ccccc1` [(R)-4-(phenylethynyl)-N-(2-phenylpropyl)benzamide], the EC50 under setting [1] worked out at 34.9 nM.
In the case of `CN(C)CCNC(=O)c1ccc(C#Cc2ccccc2)cc1` [N-(2-(dimethylamino)ethyl)-4-(phenylethynyl)benzamide], the half-maximal effective concentration (EC50) under setting [1] stood at 2990 nM.
As for `O=C(c1ccc(C#CC2CCCCC2)cc1)N1CCC(O)CC1` [Compound 19m, (4-(cyclohexylethynyl)phenyl)(4-hydroxypiperidin-1-yl)methanone], the Emax under setting [2] was 77%. Also, the EC50 was determined as 1870 nM under setting [1] and 1790 nM under setting [3].
Turning to `COc1ccccc1N1CCN(C(=O)c2ccc(C#Cc3ccccc3)cc2)CC1` [(4-(2-methoxyphenyl)piperazin-1-yl)(4-(phenylethynyl)phenyl)methanone], under setting [1], the EC50 is 2100 nM.
On the same count and under the same terms, the same measure for `O=C(c1ccc(C#Cc2ccccc2)cc1)N1CCOCC1` [morpholino(4-(phenylethynyl)phenyl)methanone]: 5.28 nM.
On to `O=C(c1ccc(C#Cc2ccccc2F)cc1)N1CCC(O)CC1` [Compound 19a, (4-((2-fluorophenyl)ethynyl)phenyl)(4-hydroxypiperidin-1-yl)methanone], for which the Emax under setting [2] is 80%. In addition, the EC50 was 28.1 nM under setting [1] and 27.3 nM under setting [3].
On to `CC(C)N1CCN(C(=O)c2ccc(C#Cc3ccccc3)cc2)CC1` [(4-isopropylpiperazin-1-yl)(4-(phenylethynyl)phenyl)methanone], for which the EC50 under setting [1] is 1190 nM.
Same read-out and setting: the same measure for `COc1ccc(C2(O)CCN(C(=O)c3ccc(C#Cc4ccccc4)cc3)CC2)cc1` [drawing 173, (4-hydroxy-4-(4-methoxyphenyl)piperidin-1-yl)(4-(phenylethynyl)phenyl)methanone]: 2630 nM; for `O=C(c1ccc(C#Cc2ccccc2)cc1)N1CCN(c2ccccn2)CC1` [(4-(phenylethynyl)phenyl)(4-(pyridin-2-yl)piperazin-1-yl)methanone]: 2920 nM.
As for `CC1(O)CCN(C(=O)c2ccc(C#Cc3ccc(F)c(F)c3)cc2)CC1` [Compound 20d, (4-((3,4-difluorophenyl)ethynyl)phenyl)(4-hydroxy-4-methylpiperidin-1-yl)methanone], under setting [2], the Emax was determined as 91%. In addition, the EC50 runs as follows: under setting [1], 156 nM; under setting [3], 137 nM.
Regarding `O=C(NCCCO)c1ccc(C#Cc2ccccc2)cc1` [N-(3-hydroxypropyl)-4-(phenylethynyl)benzamide], the EC50 under setting [1] stood at 86.2 nM.
For the molecule `O=C(c1ccc(C#Cc2ccc(F)cc2F)cc1)N1CCC(O)CC1` [Compound 19g, (4-((2,4-difluorophenyl)ethynyl)phenyl)(4-hydroxypiperidin-1-yl)methanone], the Emax under setting [2] is 58%. The EC50 was found to be 2030 nM under setting [1] and 1970 nM under setting [3].
In the case of `N#Cc1ccccc1N1CCN(C(=O)c2ccc(C#Cc3ccccc3)cc2)CC1`, the EC50 under setting [1] is 4200 nM.
For the molecule `O=C(c1ccc(C#Cc2ccccc2F)cc1)N1CCOCC1` [Compound 20i, (4-((2-fluorophenyl)ethynyl)phenyl)(morpholino)methanone], the Emax under setting [2] was 105%. For the same molecule, the EC50 under setting [1] came to 12 nM and the EC50 under setting [3] was 12 nM.
On to `O=C(c1ccc(C#Cc2ccccc2)cc1)N1CCC(NCC2CC2)CC1` [(4-(cyclopropylmethylamino)piperidin-1-yl)(4-(phenylethynyl)phenyl)methanone], for which the EC50 under setting [1] came to 2790 nM.
On the same count and under the same terms, the same measure for `O=C(c1ccc(C#Cc2ccccc2)cc1)N1CCC(N2CCC2)CC1` [(4-(azetidin-1-yl)piperidin-1-yl)(4-(phenylethynyl)phenyl)methanone]: 1110 nM.
On to `O=C(c1ccc(C#Cc2ccccn2)cc1)N1CCC(O)CC1` [Compound 19k], for which the Emax under setting [2] is 49%. In addition, the EC50 is, setting by setting: under setting [1], 2450 nM; under setting [3], 2210 nM.
The matching figures for `O=C(c1ccc(C#Cc2ccc(F)c(F)c2)cc1)N1CCC(O)CC1` [Compound 19d, (4-((3,4-difluorophenyl)ethynyl)phenyl)(4-hydroxypiperidin-1-yl)methanone]: 52%, 73.9 nM and 68.7 nM.
Regarding `CC(C)(C)CCNC(=O)c1ccc(-c2nc(-c3ccccc3)no2)cc1` [N-(3,3-dimethylbutyl)-4-(3-phenyl-1,2,4-oxadiazol-5-yl)benzamide], the EC50 under setting [1] was found to be 1160 nM.
Same read-out and setting: the same measure for `O=C(NCCc1cccc(Cl)c1)c1ccc(C#Cc2ccccc2)cc1` [N-(3-chlorophenethyl)-4-(phenylethynyl)benzamide]: 206 nM.
Consider `O=C(c1ccc(C#Cc2ccccc2)cc1)N1CC(O)C1` [Compound 9a, (3-hydroxyazetidin-1-yl)(4-(phenylethynyl)phenyl)methanone], for which the Emax under setting [2] is 67.3%. The EC50 under setting [1] was 314 nM and the EC50 under setting [3] is 212 nM.
On the same counts, the results for `O=C(c1ccc(C#Cc2ccccc2F)cc1)N1CCC(CO)CC1` [Compound 20e, (4-((2-fluorophenyl)ethynyl)phenyl)(4-(hydroxymethyl)piperidin-1-yl)methanone] are 88%, 23.6 nM and 20.6 nM.
For `O=C(c1ccc(C#Cc2ccccc2)cc1)N1CCC(O)(c2ccc(Cl)cc2C(F)(F)F)CC1` [(4-(4-chloro-2-(trifluoromethyl)phenyl)-4-hydroxypiperidin-1-yl)(4-(phenylethynyl)phenyl)methanone], the EC50 under setting [1] amounted to 477 nM.
In the case of `O=C(c1ccc(C#Cc2ccc(F)cc2)cc1)N1CCC(O)CC1` [Compound 19c, (4-((4-fluorophenyl)ethynyl)phenyl)(4-hydroxypiperidin-1-yl)methanone], the Emax under setting [2] is 63%. Further, the EC50 reads like this: under setting [1], 15.2 nM; under setting [3], 14.7 nM.
Regarding `O=C(c1ccc(C#Cc2ccccc2)cc1)N1CCC(NCCN2CCOCC2)CC1` [(4-(2-morpholinoethylamino)piperidin-1-yl)(4-(phenylethynyl)phenyl)methanone], the EC50 under setting [1] came out at 383 nM.
As to `O=C(c1ccc(C#Cc2ccccc2)cc1)N1CCC(O)(c2cccc(F)c2)CC1` [drawing 160, (4-(3-fluorophenyl)-4-hydroxypiperidin-1-yl)(4-(phenylethynyl)phenyl)methanone], under setting [1], the EC50 is 1770 nM.
As to `O=C(c1ccc(C#Cc2ccccc2F)cc1)N1CC(O)C1` [Compound 20m, (4-((2-fluorophenyl)ethynyl)phenyl)(3-hydroxyazetidin-1-yl)methanone], under setting [2], the Emax came out at 98%. In addition, the EC50 reads like this: under setting [1], 187 nM; under setting [3], 166 nM.
With `O=C(c1ccc(/C=C/c2ccccc2)cc1)N1CCC(O)CC1` [(E)-(4-hydroxypiperidin-1-yl)(4-styrylphenyl)methanone], under setting [1], the EC50 is 1970 nM.
For `CC1(O)CCN(C(=O)c2ccc(C#Cc3ccccc3)cc2)CC1` [Compound 7a, (4-hydroxy-4-methylpiperidin-1-yl)(4-(phenylethynyl)phenyl)methanone], the Emax (HEK293, read-out: % Glu Max, maximum extent of potentiation, normalized to maximal response to glutamate, SAR tables) was 82.5%. For the same molecule, the EC50 by setting is: under setting [1], 39.4 nM; under setting [3], 3.5 nM.
For the molecule `O=C(NCCc1ccc(Cl)cc1)c1ccc(C#Cc2ccccc2)cc1` [N-(4-chlorophenethyl)-4-(phenylethynyl)benzamide], under setting [1], the EC50 is 177 nM.
`O=C(c1ccc(C#Cc2ccc(F)c(F)c2)cc1)N1CCC(CO)CC1` [Compound 20h, (4-((3,4-difluorophenyl)ethynyl)phenyl)(4-(hydroxymethyl)piperidin-1-yl)methanone]: the Emax under setting [2] came out at 104%. Further, the EC50 came to 81.7 nM under setting [1] and 76.3 nM under setting [3].
